Source: US20040253319A1, “Pharmaceutical compositions and method for alleviating side-effects of estrogen replacement therapy” (priority 2003, published 2004)

Tests used:
Assay type in all cases: cell-based
[1] = tested on: human breast cancer cells (MCF-7 cells); assay: [3H]thymidine incorporation in human breast cancer cells (MCF-7); settings: estrogen 20-500 nM; FIG. 4
[2] = tested on: human smooth muscle cells; assay: [3H]thymidine incorporation growth rate assay in human smooth muscle cells; settings: estrogen 50-450 nM; FIG. 1
Protocol: Rationale: As described, the excessive growth rate of smooth muscle cells and cancer cells is directly related to accelerated atherosclerotic process and malignant tumor growth, respectively. Cultured cell growth rate is estimated according to de novo DNA synthesis assessed (i.e., [^3H]Thymidine Incorporation) according to the amount of Tritium-labeled metabolic precursor incorporated into cellular DNA during incubation period.
Human smooth muscle cells (Aortic-Cambrex Corporation, San Diego, Calif., Cat. No. CC-2571) were seeded at a cell concentration of 40,000 cells/ml (0.5 mL) per well in 24-well plates containing an appropriate growth medium (DMEM plus 10% FBS). After three hours incubation, cells were washed and fresh culture media containing tested compositions at indicated amounts were added Cells were allowed to culture for an additional 3-4 days. At the end of the culture, an aliquot of [^3H]thymidine (DuPont-NEN, Boston, Mass.) was added at a final concentration of 1 microCi/mL ([…]). After 24 hours, cells were washed in ice-cold Dulbecco's PBS, fixed in cold 10% TCA (trichloroacetic acid) for at least 0.5 hour, and incubated with 0.5 mL 0.1N sodium hydroxide for 2 hours at 37° C. Cell bound [^3H]thymidine was extracted in 0.1 N NaOH and measured in a liquid scintillation counter (LS 8000, Beckman Coulter). […]

[3] = tested on: human smooth muscle cells; assay: Smooth muscle cell invasion assay (Matrigel); settings: estrogen 100 nM; FIG. 2
Protocol: Elevated capacity of smooth muscle cells and cancer cells to invade extracellular matrix is directly related to the initiation of the atherosclerotic plaque formation and to metastasis formation, respectively. Cultured cell invasiveness is estimated according to the number of cells penetrating through a porous plastic membrane covered with natural extracellular matrix ([…], Beckton-Dickinson). Cultured cells were grown in 75 cm^2 flasks in culture medium containing 10% fetal bovine serum (FBS) to near complete confluency of 37° C. For the last 48 hours of incubation de novo synthesized cellular DNA was metabolically labelled by adding 1 microCi/mL [^3H]thymidine. Labelled cells were detached from plastic surface by treating cell layer with 0.025% trypsin in PBS. Cultured cells were seeded on the top surface of the bottom plastic membrane of the inserts placed in the wells of a 24 well plastic plate in 0.5 mL of culture medium containing 10% fetal bovine serum (FBS) at concentration 40,000 cell/mL. Insert bottom membrane has controlled size pores of 8 micron in diameter and is covered with the layer of Matrigel. […] Number of cells penetrated to the other side of the porous membrane was assessed according to amount of lower membrane surface-bound radioactivity as measured with scintillation counter (LS 8000, Beckman-Coulter).

[4] = tested on: interleukin-6 release in human smooth muscle cells; assay: Interleukin-6 release in human smooth muscle cells; settings: estrogen 100 nM; FIG. 3
Description: Rationale: Cytokine expression and its involvement in inflammatory responses are known. It has been recently accepted that vascular and smooth muscle pathology manifested in cardiovascular diseases is one of the inflammatory responses during atherosclerosis and hypertension. Interleukin-6 is one of the key cytokines which trigger the inflammation process. Over-expression of interleukin-6 in smooth muscle cells under pathological stimuli may further amplify the inflammatory lesions. The present compositions are designed to inhibit over-expression of cytokine production in smooth muscle cells (in particular, the interleukin-6). By inhibiting the expression of interleukin-6 in smooth muscle cells, the present compositions are believed to be a remedy alleviating the side-effects of estrogen replacement therapy in post-menopausal women.
(§1) The level of cellular vascular endothelium growth factor (VEGF) production is an indicator of a stimulation of neo-vascularization processes. A rate of cytokine synthesis and secretion into medium by culture cells was measured with a commercially available immunochemical assay kit. Cultured cells were seeded in 48 well plates in 0.5 mL of medium containing 10% FBS at concentration 40,000 cell/mL. […] The level of cytokines secreted into cell culture medium was measured using ELISA kits according to manufacturer's protocol (R&D Systems).

[5] = tested on: VEGF release in human breast cancer cells (MCF-7 cells); assay: VEGF release in human breast cancer cells (cytokine expression assay, ELISA); settings: estrogen 10-100 nM; FIG. 6
Description: Measurement of VEGF (Vascular Endothelial Growth Factor) in Cancer Cells Rationale: New vascularization formation (i.e., neo-vascularization) within a tumor bed is essential to the tumor growth. Without the new blood vessel formulation, most tumors can only grow to approximately 1 mm in diameter because the supply of nutrient and oxygen to the growing tumor cells depends on the blood vessels around the tumor. A tumor has the ability to attract new blood vessel formation (neo-vascularization) by releasing a protein known as vascular endothelial growth factor (VEGF). It is desirable to inhibit the VEGF expression in cancer cells so as to prevent neo-vascularization and inhibit tumor growth. (See, Vascular Endothelial Cell Growth Factor (VEGF), an Emerging Target for Cancer Chemotherapy, Shinkaruk, et al., Current Medicinal Chemistry and Anti-Cancer Agents, 2003, Vol. 3, pages 95-117).
as §1, with “kit.” for “kit. Cultured cells were seeded in 48 well plates in 0.5 mL of medium containing 10% FBS at concentration 40,000 cell/mL.”

Q: How did the “[3H]thymidine incorporation in human breast cancer cells (MCF-7)” value [1] turn out when estrogen was run?
A: The value was “induce an increase”.

Q: What about the “[3H]thymidine incorporation in human smooth muscle cells” value [2] of the same substance?
A: Its value is “induce an increase”.

Q: What about the “human smooth muscle cell invasion” value [3] of the same substance?
A: The value was “induce an increase”.

Q: And the “interleukin-6 release in human smooth muscle cells” value [4]?
A: The value was “induce an increased”.

Q: What about the “VEGF release in human breast cancer cells (MCF-7)” value [5] of the same substance?
A: The value was “induce an increased”.
